Test results reported in patent US20210138055A1, “COMPOSITIONS, METHODS AND USES FOR MODULATING THE TUMOR MICROENVIRONMENT TO ENHANCE ANTITUMOR IMMUNITY” (COLORADO STATE UNIVERSITY RESEARCH FOUNDATION, priority 2018, published 2021).

Tested on: monocytes from healthy dogs
Assay: Monocyte migration inhibition in vitro
Conditions: at relevant serum concentrations (levels achieved by oral dosing); compared to positive and negative controls; FIG. 4

SMILES	monocyte migration inhibitory activity
CCCCc1nc(Cl)c(CO)n1Cc1ccc(-c2ccccc2-c2nn[nH]n2)cc1 [losartan]	significant inhibitory activity
CC(C)NCC(O)COc1cccc2ccccc12 (centres unmarked) [propranolol]	significant inhibitory activity
